Experimental data: patent US20220241308A1, “NEURONAL FUNCTION MODULATING AGENT” (University of Tsukuba, priority 2019, published 2022)

Tests used:
[1] = test system: PARP1 (poly(ADP-ribose) polymerase 1); assay: Gene expression experiment (real-time PCR) in SH-SY5Y cells: PARP1; assay type: cell-based; settings: 24 h
Protocol: SH-SY5Y cells were seeded in 100 mm-cell dishes (BD Biocoat) at concentrations of 3.7×10^5 cells/mL (10 mL/dish) and cultured for 24 h at 37° C. and 5% CO2. Culture medium used was F12/DMEM (Gibco) supplemented with 1% non-essential amino acids (Gibco), 15% FBS (Bio West), and 1% penicillin/streptomycin (Lonza). After 24 h, the culture medium was completely removed with an aspirator, 10 mL of culture medium Opti-MEM(Gibco) was added to each dish, and the cells were cultured for 24 h at 37° C. and 5% CO2. RNA was extracted from the culture cells and analyzed for the expression of genes described below by real-time PCR (designated as “Control” in FIGS. 2 to 8).
RNA extraction was performed using ISOGEN Reagent (Nippon Gene Co., Ltd.) in accordance with the protocol recommended by Nippo n Gene Co., Ltd. (see URL: https://www.nippongene.com/siyaku/product/extraction/tds/tds_isogen-rna-dna-protein.pdf). Real-time PCR was performed according to the protocol recommended by Thermo Fisher Scientific using a reagent kit for TaqMan Real-Time PCR (Thermo Fisher Scientific) (see URL: https://assets.thermofisher.com/TFS-Assets/LSG/manuals/4304449_TaqManPCRMM_UG.pdf).
24 h after seeding 100 mm-cell dishes (BD Biocoat) with SH-SY5Y cells, the culture medium was completely removed with an aspirator, amyloid β protein (Beta-Amyloid 1-42, AnaSpec) was mixed with Opti-MEM (Gibco) so that the final concentration was 5 μM, 10 mL of the mixture was added to each dish, the cells were cultured for 24 h at 37° C. and 5% CO2, and RNA was extracted. Except for performing the procedure described above, gene expression was analyzed as described above (designated as “Aβ” in FIGS. 2 to 8).
24 h after seeding 100 mm-cell dishes (BD Biocoat) with SH-SY5Y cells, the culture medium was completely removed with an aspirator, Sample 1 was mixed with culture medium Opti-MEM(Gibco) so that the final concentration was 12.56 μM, 9,990 μL of the mixture was added to each dish and allowed to stand for 10 min, amyloid β protein (Beta-Amyloid 1-42, AnaSpec) was mixed with Opti-MEM (Gibco) so that the final concentration was […], 10 μL of the mixture was added to each well, the cells were cultured for 24 h at 37° C. and 5% CO2, and RNA was extracted. Except for performing the procedure described above, Gene expression was analyzed as described above (designated as “Aβ+M3,5G” in FIGS. 2 to 8).
Except that Sample 2 was used instead of Sample 1, gene expression was analyzed as described above (designated as “Aβ+M” in FIGS. 2 to 8).
Except that Sample 3 was used instead of Sample 1, gene expression was analyzed as described above (designated as “Aβ+M3G” in FIGS. 2 to 8). […]

[2] = test system: senescence-accelerated mice (SAMP8); assay: Animal experiment: Morris water maze test (platform test, probe test); assay type: in vivo; settings: SAMP8, oral, 30 days, 2.17 mg malvidin-3,5-diglucoside/kg/day
Protocol: Mice and administration regimens used in the experiment are as described below. Breeding conditions are common to all groups.
Compound (M3,5G)-treated (SAMP8) group: Sample 5 was orally administered to 10 senescence-accelerated mice (SAMP8) (16 weeks old, weighing 28-30 g, Japan SLC, Inc.) for a period of 30 days at a daily dose of 2.17 mg of malvidin-3,5-diglucoside per kg of mouse body weight (designated as “Senescence-accelerated mice+Compound (M3,5G)” in FIGS. 11 to 13).
Extract-treated (SAMP8) group: Sample 4 was orally administered to 10 senescence-accelerated mice (SAMP8) (16 weeks old, weighing 28-30 g, Japan SLC, Inc.) for a period of 30 days at a daily dose of 25 mg of extract powder (2.17 mg of malvidin-3,5-diglucoside in […]) per kg of mouse body weight (designated as “Senescence-accelerated mice+Extract” in FIGS. 11 to 13). […]
Mice were released into the pool and the time taken for the mice to arrive at the platform was measured. […]
On the last day of the test, the platform was removed from the pool and the mice were again released into the pool. The number of times the mouse crossed the former platform location was counted and the time the mouse spent on the former platform location was measured.

Q: With COc1cc(-c2[o+]c3cc(O)cc(OC4OC(CO)C(O)C(O)C4O)c3cc2OC2OC(CO)C(O)C(O)C2O)cc(OC)c1O (stereo not drawn) [M3,5G, Malvidin-3,5-diglucoside chloride] as the molecule, how does the “expression of PARP1” value ([1]; 12.56 μM, amyloid β protein-treated cells, compared to “Aβ”) read?
A: significantly high

Q: And the “expression of PARP1” value ([1]; Sample 1 alone, no amyloid β, compared to “Control”)?
A: comparable

Q: And the “learn and memory ability of animals” value [2]?
A: improvements
